Assay results published in patent publication US8748417B2, “Amino-pyrrolidine-azetidine diamides as monoacylglycerol lipase inhibitors” (Janssen Pharmaceutica, NV, priority 2010, dated 2014).
pIC50: −log10 of the molar value.

Key:
[1] = molecular target: T1, purified wild type MGL (wt-MGLL 6H-11-313) (Homo sapiens, UniProt Q99685); assay: MGL enzyme activity assay (4MU-B cleavage), wild type MGL; format: biochemical; conditions: wild type MGL 5 nM, 4MU-B 10 μM, 37° C.; read-out: MGL wild type inh IC50
T1 construct: purified wild type MGL (wt-MGLL 6H-11-313)
T1 sequence (Q99685 1-303): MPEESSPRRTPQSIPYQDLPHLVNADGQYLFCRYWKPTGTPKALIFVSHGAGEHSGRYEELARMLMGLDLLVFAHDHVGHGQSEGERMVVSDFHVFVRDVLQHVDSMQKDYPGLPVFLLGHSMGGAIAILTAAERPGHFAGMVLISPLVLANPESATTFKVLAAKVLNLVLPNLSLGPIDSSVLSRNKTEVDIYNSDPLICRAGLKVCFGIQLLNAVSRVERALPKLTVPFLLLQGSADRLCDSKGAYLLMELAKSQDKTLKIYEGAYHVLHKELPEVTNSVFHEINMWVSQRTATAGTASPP
Experimental: All rate-based assays were performed in black 384-well polypropylene PCR microplates (Abgene) in a total volume of 30 μL. Substrate 4-methylumbelliferyl butyrate (4MU-B; Sigma) and either purified mutant MGL (mut-MGLL 11-313 L179S L186S) or purified wild type MGL (wt-MGLL 6H-11-313) were diluted separately into 20 mM PIPES buffer (pH=7.0), containing 150 mM NaCl and 0.001% Tween 20. Compounds of Formula (I) were pre-dispensed (50 nL) into the assay plate using a Cartesian Hummingbird prior to adding 4MU-B (25 μL of 1.2× solution to a final concentration of 10 μM) followed by enzyme (5 μL of a 6× solution to a final concentration of 5 nM) to initiate the reaction. Final compound concentrations ranged from 17 to 0.0003 μM. The fluorescence change due to 4MU-B cleavage was monitored with excitation and emission wavelengths of 335 and 440 nm, respectively, and a bandwidth of 10 nm (Safire^2, Tecan) at 37° C. for 5 min.
The IC50 values for the following compounds were determined using Microsoft Office Excel from a fit of the equation to the concentration-response plot of the fractional activity as a function of inhibitor concentration.

[2] = tested on: MGL (rat brain homogenate); assay: 2-AG accumulation assay in rat brain homogenate; format: biochemical; conditions: compound 1 μM, percent of vehicle 2-AG accumulation
Experimental: After a 15-min incubation time at 37° C., CaCl2 (final concentration=10 mM) was added and then incubated for 15 min at 37° C. in a total volume of 5 mL. The reactions were stopped with 6 mL organic solvent extraction solution of 2:1 chloroform/methanol. Accumulated 2-AG in the organic phase was measured by a HPLC/MS method, according to the following equation: percent vehicle=(2-AG accumulation in the presence of compound/2-AG accumulation in vehicle)×100.

| pIC50 [1] | SMILES | Rat Brain 2AG % VehCntrl (%) @1 μM [2] [%] |
| --- | --- | --- |
| > 8.30 | Cc1c(C(=O)N2CC(N[C@H]3CCN(C(=O)c4nccs4)C3)C2)sc2ccc(-c3cccc(C(F)(F)F)c3)cc12 [Cpd 90, (3S)-N-[1-({3-Methyl-5-[3-(trifluoromethyl)phenyl]-1-benzothiophen-2-yl}carbonyl)azetidin-3-yl]-1-(1,3-thiazol-2-ylcarbonyl)pyrrolidin-3-amine] | 1130 |
| > 8.30 | Cc1c(C(=O)N2CC(N[C@H]3CCN(C(=O)c4nccs4)C3)C2)sc2ccc(-c3ccccc3)cc12 [Cpd 92, (3S)-N-{1-[(3-Methyl-5-phenyl-1-benzothiophen-2-yl)carbonyl]azetidin-3-yl}-1-(1,3-thiazol-2-ylcarbonyl)pyrrolidin-3-amine] | 624 |
| > 8.30 | Cc1c(C(=O)N2CC(N[C@H]3CCN(C(=O)c4ccccc4)C3)C2)sc2ccc(-c3cccc(F)c3)cc12 [Cpd 93, (3S)-N-(1-{[5-(3-Fluorophenyl)-3-methyl-1-benzothiophen-2-yl]carbonyl}azetidin-3-yl)-1-(phenylcarbonyl)pyrrolidin-3-amine] | 963 |
| > 8.30 | Cc1c(C(=O)N2CC(N[C@H]3CCN(C(=O)c4ccccc4)C3)C2)sc2ccc(-c3ccc(F)cc3)cc12 [Cpd 94, (3S)-N-(1-{[5-(4-Fluorophenyl)-3-methyl-1-benzothiophen-2-yl]carbonyl}azetidin-3-yl)-1-(phenylcarbonyl)pyrrolidin-3-amine] | 445 |
| > 8.30 | O=C(c1cc2ccc(-c3cccc(C(F)(F)F)c3)cc2s1)N1CC(N[C@H]2CCN(C(=O)c3nccs3)C2)C1 [Cpd 99, (3S)-1-(1,3-Thiazol-2-ylcarbonyl)-N-[1-({6-[3-(trifluoromethyl)phenyl]-1-benzothiophen-2-yl}carbonyl)azetidin-3-yl]pyrrolidin-3-amine] | 644 |
| > 8.30 | O=C(c1cscn1)N1CC[C@H](NC2CN(C(=O)c3cc4ccc(-c5cccc(C(F)(F)F)c5)cc4s3)C2)C1 [Cpd 100, (3S)-1-(1,3-Thiazol-4-ylcarbonyl)-N-[1-({6-[3-(trifluoromethyl)phenyl]-1-benzothiophen-2-yl}carbonyl)azetidin-3-yl]pyrrolidin-3-amine] | 546 |
| 7.36 | O=C(c1ccc2c(-c3ccc(C(F)(F)F)cc3)c[nH]c2c1)N1CC(N[C@H]2CCN(C(=O)c3ccccc3)C2)C1 [Cpd 101, (3S)-1-(Phenylcarbonyl)-N-[1-({3-[4-(trifluoromethyl)phenyl]-1H-indol-6-yl}carbonyl)azetidin-3-yl]pyrrolidin-3-amine] | 141 |
| 7.65 | O=C(c1ccc2c(-c3ccc(C(F)(F)F)cc3)c[nH]c2c1)N1CC(N[C@H]2CCN(C(=O)c3nccs3)C2)C1 [Cpd 104, (3S)-1-(1,3-Thiazol-2-ylcarbonyl)-N-[1-({3-[4-(trifluoromethyl)phenyl]-1H-indol-6-yl}carbonyl)azetidin-3-yl]pyrrolidin-3-amine] | 195 |
| > 8.30 | O=C(c1ccc2c(-c3cccc(C(F)(F)F)c3)c[nH]c2c1)N1CC(N[C@H]2CCN(C(=O)c3cscn3)C2)C1 [Cpd 106, (3S)-1-(1,3-Thiazol-4-ylcarbonyl)-N-[1-({3-[3-(trifluoromethyl)phenyl]-1H-indol-6-yl}carbonyl)azetidin-3-yl]pyrrolidin-3-amine] | 389 |
| > 8.30 | O=C(c1ccc(-c2cccc(C(F)(F)F)c2)cc1)N1CC(N[C@H]2CCN(C(=O)c3nccs3)C2)C1 [Cpd 113, (3S)-1-(1,3-Thiazol-2-ylcarbonyl)-N-(1-{[3′-(trifluoromethyl)biphenyl-4-yl]carbonyl}azetidin-3-yl)pyrrolidin-3-amine] | 832 |
| 8.00 | O=C(c1ccc(-c2ccc(C(F)(F)F)cc2)cc1)N1CC(N[C@H]2CCN(C(=O)c3nccs3)C2)C1 [Cpd 115, (3S)-1-(1,3-Thiazol-2-ylcarbonyl)-N-(1-{[4′-(trifluoromethyl)biphenyl-4-yl]carbonyl}azetidin-3-yl)pyrrolidin-3-amine] | 310 |
| > 8.30 | O=C(c1nccs1)N1CC[C@H](NC2CN(C(=O)c3ccc(-c4cccc(C(F)(F)F)c4)cc3F)C2)C1 [Cpd 116, (3S)-N-(1-{[3-Fluoro-3′-(trifluoromethyl)biphenyl-4-yl]carbonyl}azetidin-3-yl)-1-(1,3-thiazol-2-ylcarbonyl)pyrrolidin-3-amine] | 733 |
| > 8.30 | Cc1cc(-c2cccc(C(F)(F)F)c2)ccc1C(=O)N1CC(N[C@H]2CCN(C(=O)c3nccs3)C2)C1 [Cpd 117, (3S)-N-(1-{[3-Methyl-3′-(trifluoromethyl)biphenyl-4-yl]carbonyl}azetidin-3-yl)-1-(1,3-thiazol-2-ylcarbonyl)pyrrolidin-3-amine] | 400 |
| > 8.30 | O=C(c1ccc2c(ccn2-c2ccc(C(F)(F)F)cc2)c1)N1CC(N[C@H]2CCN(C(=O)c3nccs3)C2)C1 [Cpd 118, (3S)-1-(1,3-Thiazol-2-ylcarbonyl)-N-[1-({1-[4-(trifluoromethyl)phenyl]-1H-indol-5-yl}carbonyl)azetidin-3-yl]pyrrolidin-3-amine] | 626 |
| 7.31 | O=C(c1ccc2c(ccn2-c2ncccn2)c1)N1CC(N[C@H]2CCN(C(=O)c3nccs3)C2)C1 [Cpd 119, (3S)-N-{1-[(1-Pyrimidin-2-yl-1H-indol-5-yl)carbonyl]azetidin-3-yl}-1-(1,3-thiazol-2-ylcarbonyl)pyrrolidin-3-amine] | 255 |
| 7.22 | O=C(c1ccccc1)N1CC[C@H](NC2CN(C(=O)c3cc4cc(-c5ccc(Cl)s5)ccc4o3)C2)C1 [Cpd 122, (3S)-N-(1-{[5-(5-Chlorothiophen-2-yl)-1-benzofuran-2-yl]carbonyl}azetidin-3-yl)-1-(phenylcarbonyl)pyrrolidin-3-amine] | 152 |
| > 8.30 | Cc1c(C(=O)N2CC(N[C@H]3CCN(C(=O)c4cscn4)C3)C2)sc2ccc(-c3ccccc3)cc12 [Cpd 123, (3S)-N-{1-[(3-Methyl-5-phenyl-1-benzothiophen-2-yl)carbonyl]azetidin-3-yl}-1-(1,3-thiazol-4-ylcarbonyl)pyrrolidin-3-amine] | 661 |
| 8.22 | O=C(c1cscn1)N1CC[C@H](NC2CN(C(=O)c3cc4ccc(-c5ccccc5)cc4s3)C2)C1 [Cpd 124, (3S)-N-{1-[(6-Phenyl-1-benzothiophen-2-yl)carbonyl]azetidin-3-yl}-1-(1,3-thiazol-4-ylcarbonyl)pyrrolidin-3-amine] | 227 |
| > 8.30 | O=C(c1ccc(Cc2cccc(C(F)(F)F)c2)cc1)N1CC(N[C@H]2CCN(C(=O)c3ccccc3)C2)C1 [Cpd 126, (3S)-1-(Phenylcarbonyl)-N-[1-({4-[3-(trifluoromethyl)benzyl]phenyl}carbonyl)azetidin-3-yl]pyrrolidin-3-amine] | 715 |
| > 8.30 | O=C(c1ccc(Cc2cccc(C(F)(F)F)c2)cc1)N1CC(N[C@H]2CCN(C(=O)c3cscn3)C2)C1 [Cpd 127, (3S)-1-(1,3-Thiazol-4-ylcarbonyl)-N-[1-({4-[3-(trifluoromethyl)benzyl]phenyl}carbonyl)azetidin-3-yl]pyrrolidin-3-amine] | 618 |
| 8.30 | O=C(c1cscn1)N1CC[C@H](NC2CN(C(=O)c3cc4ccc(-c5ccc(C(F)(F)F)cc5)cc4s3)C2)C1 [Cpd 128, (3S)-1-(1,3-Thiazol-4-ylcarbonyl)-N-[1-({6-[4-(trifluoromethyl)phenyl]-1-benzothiophen-2-yl}carbonyl)azetidin-3-yl]pyrrolidin-3-amine] | 491 |
| > 8.30 | O=C(c1cc2cc(-c3ccccc3)ccc2s1)N1CC(N[C@H]2CCN(C(=O)c3nccs3)C2)C1 [Cpd 129, (3S)-N-{1-[(5-Phenyl-1-benzothiophen-2-yl)carbonyl]azetidin-3-yl}-1-(1,3-thiazol-2-ylcarbonyl)pyrrolidin-3-amine] | 590 |
